According to patent US7615361B2, “Toxicity screening methods” (Ceetox, Inc., priority 2006, dated 2009):

Columns and labels:
C32 cells = assay: Caspase 3 activity (apoptosis); assay type: cell-based, human; conditions: C32, 24 HR
Experimental: (§1) Caspase 3 Procedure: Caspase 3 activity was determined using a caspase substrate (DEVD, Asp-Glu-Val-Asp) labeled with a fluorescent molecule, 7-Amino4-methylcoumarin (AMC). Caspase 3 cleaves the tetrapeptide between D and AMC, thus releasing the fluorogenic […] AMC. Following the test article exposure to cells in 96-well plates, medium was aspirated from plates and PBS added to each well. Plates were stored at −80° C. to lyse cells and store samples until further analysis. On the day of analysis, plates were removed from freezer and thawed. Caspase buffer with fluorescent substrate was added to each well and incubated at room temperature for 1 hr. AMC release was measured in a spectrofluorometer at an excitation wavelength of 360 nm and an emission wavelength of 460 nm. Values are expressed as relative fluorescent units (RFU).
(§2) Caspase Activity: After sample plates were completely thawed, the caspase substrate buffer mix was added to each plate. Plates were incubated at room temperature for 1hr, shielded from light. Plates were read using a in a spectrofluorometer at an excitation wavelength of 360 nm and an emission wavelength of 460 nm. Values were expressed as relative fluorescent units (RFU).
(§3) The key to the maximal response data can be found below Table 2.
(§4) Dosing solutions were prepared in complete culture medium.

SK-MEL28 cells [1] = assay: Caspase 3 activity (apoptosis); assay type: cell-based, human
Experimental: as §1, §2, §3, §4

HUVEC = assay: Caspase 3 activity (apoptosis); assay type: cell-based, human; conditions: 24 HR
Experimental: as §1, §2, §3, §4

NHEM cells = assay: Caspase 3 activity (apoptosis); assay type: cell-based, human; conditions: 24 HR
Experimental: as §1, §2, §3, §4

human hepatocytes = assay: Caspase 3 activity (apoptosis); assay type: cell-based; conditions: 24 HR
Experimental: as §1, §2
The apoptosis data is expressed in Table 2 as a ratio of the magnitude of response versus the exposure concentration that produced the response. […]

SK-MEL28 cells [2] = assay: BrdU incorporation; assay type: cell-based, human; conditions: SK-MEL28, 24 hr exposure to 5 and 10 μM
Experimental: Bromodexoyurine (BrDU) Incorporation: This assay was used to monitor cumulative changes in DNA replication. The assay uses the thymidine analog BrdU to measure S-phase of cell replication and is considered to be the Gold Standard for cell proliferation. BrDU (10 μM) was included in the test compound dosing solution to allow BrDU incorporation during cell replication. BrDU was included for the duration of the exposure, 24 hr. After completion of exposure period, the cells were fixed and labeled with mouse monoclonal anti-BrDU (FITC). Fluorescence was measured using a Packard Fusion or equivalent plate reader at 485 nm excitation and 530 nm emission.
Bromodexoyurine (BrDU) Incorporation: After incubation, the test compound/BrDU solution was removed and cells were fixed. A solution containing mouse monoclonal anti-BrDU (FITC) was added and fluorescence was measured. Data were collected as relative fluorescent units (RFU). The blank was subtracted from the final well RFU. It represents the average of the first and last columns which contain no cells on that particular plate. The controls are untreated cells allowed to grow on the same plate. The compounds are represented by several separate RFU data points for each of the tested concentrations. The percent change relative to controls was calculated by dividing the average RFU by the control cell RFU and multiplying by 100.
Experiments were also conducted to verify the relationship between exposure time and the observed cytostatic effects of the test compound. An additional assay was used to monitor cumulative change in DNA replication. The assay uses the thymidine analog BrdU to measure S-phase of cell replication and is considered to be the Gold Standard for cell proliferation. […] The BrdU assay paralleled the MTT and propidium iodide assays. The apparent lower sensitivity of the BrdU assay is a reflection of the experimental design not the assay. BrdU data represents a cumulative effect from the beginning of exposure while the other assays are measuring one is remaining at the end of either the 24 hr or 72 hr exposure period. […] There was a trend toward increasing activity in caspase-3, a marker for cell apoptosis.

[3] = MemTox membrane leakage (AK / α-GST); assay type: cell-based; conditions: human, HUVEC, read-out: MemTox TC50
Experimental: Membrane Leakage (α-Glutathione S-transferase and/or Adenylate Kinase): The presence of Adenylate Kinase (AK) or α-Glutathione S-transferase (α-GST), both enzyme leakage markers, was measured in the culture medium using an activity assay for Adenylate Kinase and/or an ELISA assay for α-GST. At the end of the exposure period, the medium covering the cells in each well was removed and placed into new 96-well plates with appropriate labeling. […] Luminescence (AK) values were measured with a Packard Fusion or equivalent plate reader, and absorbance (α-GST) values were measured with a Packard SpectraCount™ or equivalent reader at 450 nm and reference absorbance at 650 nm.
Membrane Leakage (α-Glutathione S-transferase and/or Adenylate Kinase): Leakage of Adenylate Kinase or α-GST from the cell into the culture medium was determined by collecting the culture medium at the end of the exposure period. Thus, the values measured represent total enzyme leakage lost over the exposure period. The control for 100% dead or maximum enzyme release was based on cells treated with 1 mM digitonin at the time of dosing. Percent dead cells relative to digitonin treated cells was determined and then subtracted from 100% to yield the percent live cells.
as §4

[4] = test system: H4IIE tumor cells, NRK cells, rat primary hepatocytes; assay: Anti-tumor screen in three rat cell types; assay type: cell-based
Excerpt: In the Anti-tumor screen of the present invention, at least three different cell types are utilized: (1) tumor derived cells, (2) proliferating cells from normal tissue, and (3) non-proliferating cells from normal tissue. The evaluation of anti-tumor agents in multiple cell types provides information on mechanism-based toxicity versus efficacy.
The anti-tumor agent can be evaluated in a toxicity screen of key biochemical functions (as described in detail herein above), with emphasis placed on cell proliferation assays as well as biochemical function and cell viability. Comparisons can then be made to quantitative markers in the concentration response curves constructed with the toxicity data.
It is hypothesized to act through mitochondrial toxicity as well as apoptosis.

Row | Compound | Caspase 3 Activity (Index/Dose): Index (C32 cells) | Caspase 3 Activity (Index/Dose): Dose (C32 cells; controls (μM section)) | Caspase 3 Activity (Index/Dose): Index (SK-MEL28 cells [1]; SK-MEL28, 24 HR) | Caspase 3 Activity (Index/Dose): Index (SK-MEL28 cells [1]; SK-MEL28, 24 HR, COMP A (LOW) / controls #2) | Caspase 3 Activity (Index/Dose): Dose (SK-MEL28 cells [1]; SK-MEL28, 24 HR, run #2, controls (μM section)) | Caspase 3 Activity (Index/Dose): Dose (SK-MEL28 cells [1]; SK-MEL28, 24 HR, controls (μM section of table)) | Caspase 3 Activity (Index/Dose): Index (SK-MEL28 cells [1]; SK-MEL28, 72 HR, COMP A (LOW) / controls #2) | Caspase 3 Activity (Index/Dose): Dose (SK-MEL28 cells [1]; SK-MEL28, 72 HR, run #2, controls (μM section)) | Caspase 3 Activity (Index/Dose): Index (HUVEC) | Caspase 3 Activity (Index/Dose): Dose (HUVEC; controls (μM section)) | Caspase 3 Activity (Index/Dose): Index (NHEM cells) | Caspase 3 Activity (Index/Dose): Dose (NHEM cells; controls (μM section)) | Caspase 3 Activity (Index/Dose): Index (human hepatocytes) | Caspase 3 Activity (Index/Dose): Dose (human hepatocytes; controls (μM section)) | Cell proliferation as measured by the S-phase marker BrdU (SK-MEL28 cells [2]) | CC50 at 24 h [3] [µM] | sensitivity of cell types in the anti-tumor screen [4]
1 | CC[C@@]1(O)C(=O)OCc2c1cc1n(c2=O)Cc2cc3ccccc3nc2-1 [CAMPTOTHECIN, Camptothecin] | 4 (600-800 = 4) | 300 | 3 (400-600 = 3) | 3 (400-600 = 3) | 100 | 300 | 3 (400-600 = 3) | 100 | 1 (0-200 = 1) | 300 | 3 (400-600 = 3) | 300 | 3 (400-600 = 3) | 100 | undetectable | 13 | –
2 | COc1cccc2c1C(=O)c1c(O)c3c(c(O)c1C2=O)C[C@@](O)(C(=O)CO)C[C@@H]3O[C@H]1C[C@H](N)[C@H](O)[C@H](C)O1 [ADRIAMYCIN, Adriamycin] | – | – | – | – | – | – | – | – | – | – | – | – | – | – | – | – | toxic to all of the cells tested
